Assay results from patent US20210244712A1, “METHODS FOR TREATING PATIENTS WITH CANCER HAVING DEFECTS IN CYCLIN D REGULATION” (NysnoBio Ireland DAC, priority 2018, published 2021).

Columns and labels:
Assay in all cases: Cell proliferation assay
Type in all cases: cell-based
MDA-MB-453 = settings: Homo sapiens, 72 hrs, read-out: Cell Viability: IC50
Description: (§1) Measurement of the inhibitive effect of compounds on cancer cell proliferation was performed. The assays were performed under the following conditions: Cells are harvested at a concentration of 4×10^4 cells/ml in media. Volumes of 100 μL/well of these cell suspensions were added to a 96 well plate using a multichannel pipette. Plates were gently agitated to ensure an even dispersion of cells over a given plate. Cells were then incubated at 37° C., 5% CO2 overnight. Following this, 100 μL of compound at varying concentrations was added to wells in triplicate. Control wells are those with 100 μL media containing 0.33% DMSO added to cell suspension (this is the equivalent volume of DMSO found in the highest concentration of drug). Plates were then gently agitated, as above, and incubated at 37° C., 5% CO2 for 72 hrs (control wells have reached 80-90% confluency). Assessment of cell proliferation in the presence of Compounds C and F was determined by the acid phosphatase assay.
(§2) Following the incubation period of 72 hrs, media was removed from the plates. Each well on the plate was washed twice with 100 μL PBS. This was then removed and 100 μL of freshly prepared phosphatase substrate (10 mM p-nitrophenol phosphate in 0.1M sodium acetate, 0.1% triton X-100, pH 5.5) was added to each well. The plates were then incubated in the dark at 37° C. for 2 hours. Color development was monitored during this time. The enzymatic reaction was stopped by the addition of 50 μL of 1N NaOH. The plate was read in a dual beam plate reader at 405 nm with a reference wavelength of 620 nm. The absorbance reading of the latter is subtracted from the former, and the effect of the drug on cell proliferation was then measured as a percentage against the control cells (DMSO), which is taken as 0% inhibition.

Calu-6 = settings: Homo sapiens, 72 hrs, read-out: Cell Viability: IC50
Description: as §1, §2

DLD-1 = settings: Homo sapiens, 72 hrs, read-out: Cell Viability: IC50
Description: as §1, §2

MDA-MB-231 = settings: Homo sapiens, 72 hrs, read-out: Cell Viability: IC50
Description: as §1, §2

ZR-75-1 = settings: Homo sapiens, 72 hrs, read-out: Cell Viability: IC50
Description: as §1, §2

SK-LU-1 = settings: Homo sapiens, 72 hrs, read-out: Cell Viability: IC50
Description: as §1, §2

SW480 = settings: Homo sapiens, 72 hrs, read-out: Cell Viability: IC50
Description: as §1, §2

BT-474 = settings: Homo sapiens, 72 hrs, read-out: Cell Viability: IC50
Description: as §1, §2

COV504 = settings: 72 hrs, read-out: Cell Viability: IC50
Description: as §1, §2

RKO = settings: Homo sapiens, 72 hrs, read-out: Cell Viability: IC50
Description: as §1, §2

Calu-1 = settings: Homo sapiens, 72 hrs, read-out: Cell Viability: IC50
Description: as §1, §2

SK-BR-3 = settings: Homo sapiens, 72 hrs, read-out: Cell Viability: IC50
Description: as §1, §2

HT-29 = settings: Homo sapiens, 72 hrs, read-out: Cell Viability: IC50
Description: as §1, §2

NCl-H292 = settings: 72 hrs, read-out: Cell Viability: IC50
Description: as §1, §2

MDA-MB-468 = settings: Homo sapiens, 72 hrs, read-out: Cell Viability: IC50
Description: as §1, §2

HCC38 = settings: Homo sapiens, 72 hrs, read-out: Cell Viability: IC50
Description: as §1, §2

NCl-H1395 = settings: 72 hrs, read-out: Cell Viability: IC50
Description: as §1, §2

HCT-8 = settings: Homo sapiens, 72 hrs, read-out: Cell Viability: IC50
Description: as §1, §2

NC-H196 = settings: 72 hrs, read-out: Cell Viability: IC50
Description: as §1, §2

LOVO = settings: Homo sapiens, 72 hrs, read-out: Cell Viability: IC50
Description: as §1, §2

Hutu 80 = settings: Homo sapiens, HuTu80, 72 hrs, read-out: Cell Viability: IC50
Description: as §1, §2

LS174T = settings: Homo sapiens, 72 hrs, read-out: Cell Viability: IC50
Description: as §1, §2

OVTOKO = settings: 72 hrs, read-out: Cell Viability: IC50
Description: as §1, §2

JIMT-1 = settings: Homo sapiens, 72 hrs, read-out: Cell Viability: IC50
Description: as §1, §2

SW948 = settings: Homo sapiens, 72 hrs, read-out: Cell Viability: IC50
Description: as §1, §2

OVSAHO = settings: Homo sapiens, 72 hrs, read-out: Cell Viability: IC50
Description: as §1, §2

HCC1954 = settings: Homo sapiens, 72 hrs, read-out: Cell Viability: IC50
Description: as §1, §2

KPL-1 = settings: 72 hrs, read-out: Cell Viability: IC50
Description: as §1, §2

MDA-MB-436 = settings: Homo sapiens, 72 hrs, read-out: Cell Viability: IC50
Description: as §1, §2

Caco-2 = settings: Homo sapiens, 72 hrs, read-out: Cell Viability: IC50
Description: as §1, §2

MDA-MB-157 = settings: Homo sapiens, 72 hrs, read-out: Cell Viability: IC50
Description: as §1, §2

SK-CO-1 = settings: Homo sapiens, 72 hrs, read-out: Cell Viability: IC50
Description: as §1, §2

MSTO-211H = settings: Homo sapiens, 72 hrs, read-out: Cell Viability: IC50
Description: as §1, §2

T-47D = settings: Homo sapiens, T47D, 72 hrs, read-out: Cell Viability: IC50
Description: as §1, §2

NCl-H226 = settings: 72 hrs, read-out: Cell Viability: IC50
Description: as §1, §2

OVISE = settings: 72 hrs, read-out: Cell Viability: IC50
Description: as §1, §2

SW527 = settings: 72 hrs, read-out: Cell Viability: IC50
Description: as §1, §2

SK-OV-3 = settings: Homo sapiens, Table 7a, Ovarian (SKOV3)
Description: as §1, §2

Mino = settings: Homo sapiens; Mantle Cell Mino; overexpression of Cyclin D
Description: as §1, §2

Cc1ccccc1C(=O)Nc1nc(NC(=O)c2ccccc2C)n(-c2ccccc2)n1 [Compound F, 2-methyl-N-[5-[(2-methylbenzoyl)amino]-1-phenyl-1,2,4-triazol-3-yl]benzamide]
IC50 (MDA-MB-453): 3.04 µM
IC50 (Calu-6): 1.89 µM
IC50 (DLD-1): 7.49 µM
IC50 (MDA-MB-231): 6.98 µM
IC50 (ZR-75-1): 3.87 µM
IC50 (SK-LU-1): 5.73 µM
IC50 (SW480): 3.49 µM
IC50 (BT-474): 3.03 µM
IC50 (COV504): 2 µM
IC50 (RKO): 4.12 µM
IC50 (Calu-1): 43.3 µM
IC50 (SK-BR-3): 3.05 µM
IC50 (HT-29): 2.96 µM
IC50 (NCl-H292): 0.95 µM
IC50 (MDA-MB-468): 3.18 µM
IC50 (HCC38): 5.77 µM
IC50 (NCl-H1395): 7.6 µM
IC50 (HCT-8): 4.74 µM
IC50 (NC-H196): 2.83 µM
IC50 (LOVO): 5.64 µM
IC50 (Hutu 80): 1.63 µM
IC50 (LS174T): 2.37 µM
IC50 (OVTOKO): > 10 µM
IC50 (JIMT-1): 8.49 µM
IC50 (SW948): 8.37 µM
IC50 (OVSAHO): 6.53 µM
IC50 (HCC1954): 3.69 µM
IC50 (KPL-1): 3.86 µM
IC50 (MDA-MB-436): 6.55 µM
IC50 (Caco-2): > 10 µM
IC50 (MDA-MB-157): 5.82 µM
IC50 (SK-CO-1): 0.98 µM
IC50 (MSTO-211H): 2.31 µM
IC50 (T-47D): 7.37 µM
IC50 (NCl-H226): 7.33 µM
IC50 (OVISE): 7.33 µM
IC50 (SW527): 6.69 µM

Cc1ccccc1C(=O)Nc1nc(NC(=O)c2ccccc2C)n(-c2ccc(OC(F)(F)F)cc2)n1 [Compound 42, N,N′-(1-(4-(trifluoromethoxy)phenyl)-1H-1,2,4-triazole-3,5-diyl)bis(2-methylbenzamide)]
EC50 (SK-OV-3): 0.376 µM
IC50 (Mino): 0.345 µM
